Consider nine compounds from patent publication US8821850B2, “Protein-polymer-drug conjugates” (Mersana Therapeutics, Inc., priority 2011, dated 2014).

Assay type in all cases: cell-based
Experiment [1] concerns HER2 expressing cells BT474. Put plainly: Cell viability assay (Cell Titer-Glo), BT474. The settings on record: read-out: BT474 IC50. (Cellular ATP, detected with luciferase, serves as a proxy for viable cell number.)
Protocol: (§1) PBRM-drug polymer conjugates were evaluated for their tumor viability using Cell Titer-Glo (Promega Corp). Cells were plated in black walled 96-well plate and allowed to adhere overnight at 37° C. in a humidified atmosphere of 5% CO2. HER2 expressing cells SKBR3, BT474, NCI-N87 and cells expressing low levels of HER2-MCF7 were plated at a density of 5,000 cells per well. The next day the medium was replaced with 50 μL fresh medium and 50 μL of 2× stocks of PBRM-drug polymer conjugate, drug polymer conjugate or drug were added to appropriate wells, mixed and incubated for 72 h. Cell Titer-Glo reagent was added to the wells at room temperature and the luminescent signal was measured after 10 min using a SpectraMax M5 plate reader (Molecular Devices). Dose response curves were generated using SoftMax Pro software. IC50 values were determined from four-parameter curve fitting.
The subject of experiment [2] is cells expressing low levels of HER2-MCF7. Put plainly: Cell viability assay (Cell Titer-Glo), MCF7.
Protocol: as §1
The test system of experiment [3] is HER2 expressing cells SKBR3. Put plainly: Cell viability assay (Cell Titer-Glo), SKBR3.
Protocol: as §1
Experiment [4] has as its system HER2 expressing cells NCI-N87. As to the kind of experiment: Cell viability assay (Cell Titer-Glo), NCI-N87. The settings on record: read-out: N87 IC50.
Protocol: as §1
Setting [5] is: Homo sapiens, MCF7, 72 h, read-out: MCF7 IC50, Table II.
[6] abbreviates: Table XIII, 72 h, conjugates with high drug loading.
Where [7] appears, read: Table XIII, 72 h, conjugates with high drug loading, read-out: MCF7 IC50.
Setting [8] is: Table XII, 72 h, conjugates with PBRM MW<80 kDa, read-out: MCF7 IC50.
Where [9] appears, read: Table XII, 72 h, conjugates with PBRM MW<80 kDa, read-out: SKBR3 IC50.
[10] abbreviates: Table XIII, 72 h, conjugates with high drug loading, read-out: SKBR3 IC50.

Read-outs that look alike come from different tables or passages of the source. Square brackets hold non-standard residues; d marks the D form. Peptide text beside a SMILES is read from it. * marks the point of attachment. Dolaproine = CO[C@@H]([C@@H]1CCCN1)[C@@H](C)C(=O)O; Dil = CC[C@H](C)[C@H](NC)[C@@H](CC(=O)O)OC; NMe2Val = CC(C)[C@@H](C(=O)*)N(C)C; X1 = C[C@H](N)C(=O)OCCCN*

What is called IC50 is the point on the concentration scale where inhibition reaches its midpoint.

Take `CCC1(O)C[C@H]2C[N@](CCc3c([nH]c4ccccc34)[C@@](C(=O)OC)(c3cc4c(cc3OC)N(C)C3C45CCN4CC=C[C@](CC)(C45)[C@@H](O)[C@]3(O)C(=O)NC[C@@H](C)O)C2)C1` (stereo partly drawn) [Example 23, (R)-2HPV]: the IC50 came to 0.39 nM in experiment [1] (Homo sapiens, BT-474, 72 h); 1.71 nM in experiment [2] (setting [5]); 0.71 nM in experiment [3] (Homo sapiens, SK-BR-3, 72 h, read-out: SKBR3 IC50, Table II).
In the case of “22 kDa PHF-BA-(AF HPA)-SS-Rituximab [Example 94, Conjugate C]”, the figures for the IC50 in experiment [4] (setting [6]), in experiment [1] (setting [6]) and in experiment [2] (setting [7]) were 5.84 nM, 2.82 nM and 4.17 nM, respectively.
For “156 kDa PHF-BA (AF HPA-L-Alanine)-SS-(Trastuzumab-Fab′) [Example 96 Conjugate B]”, the results for the IC50 in experiment [2] (setting [8]) and in experiment [3] (setting [9]) were over 100 nM and 1 nM, respectively.
“22 kDa PHF-BA-(AF HPA-L-Alanine)-SS-Trastuzumab [Example 94, Conjugate A]”: the IC50 in experiment [4] (setting [6]) amounted to 0.12 nM; in experiment [1] (setting [6]) it was 0.05 nM; in experiment [2] (setting [7]), 9.5 nM; in experiment [3] (setting [10]), 0.008 nM.
Take “47 kDa PHF-BA-(AF HPA-L-Alanine)-SS-Trastuzumab [Example 94, Conjugate B]”: the 50% inhibitory concentration (IC50) is about 0.3 nM in experiment [4] (setting [6]), under 0.05 nM in experiment [1] (setting [6]), 7.4 nM in experiment [2] (setting [7]) and under 0.05 nM in experiment [3] (setting [10]).
Regarding “47 kDa PHF-BA-(AF HPA-L-Alanine)-SS-Rituximab [Example 94, Conjugate D]”, the IC50 in experiment [4] (setting [6]) turned out to be 10.9 nM; in experiment [1] (setting [6]), 1.1 nM; in experiment [2] (setting [7]), 8.8 nM; in experiment [3] (setting [10]), 0.26 nM.
Consider “105 kDa PHF-BA (AF HPA-L-Alanine)-SS-(Trastuzumab-Fab′) [Example 96 Conjugate A]”, for which the IC50 is over 100 nM in experiment [2] (setting [8]) and 0.6 nM in experiment [3] (setting [9]).
On to `CC[C@H](C)[C@@H]([C@@H](CC(=O)N1CCC[C@H]1[C@H](OC)[C@@H](C)C(=O)N[C@@H](Cc1ccccc1)C(=O)NCCCOC(=O)[C@H](C)N)OC)N(C)C(=O)[C@@H](NC(=O)[C@H](C(C)C)N(C)C)C(C)C` [Example 50, AF HPA-L-Alanine] (NMe2Val-V[Dil][Dolaproine]F-X1), for which the IC50 amounted to 1.6 nM in experiment [4] (Homo sapiens, NCI-N87, 72 h); 0.85 nM in experiment [1] (Homo sapiens, BT-474, 72 h); 8.5 nM in experiment [2] (Homo sapiens, MCF7, 72 h, read-out: MCF7 IC50, Table XIII, conjugates with high drug loading); 8.2 nM in experiment [2] (read-out: MCF7 IC50, Table XIII, 72 h, conjugates with high drug loading); 0.32 nM in experiment [3] (Homo sapiens, SK-BR-3, 72 h, read-out: SKBR3 IC50, Table XIII, conjugates with high drug loading).
For the compound `CCC1(O)C[C@H]2C[N@](CCc3c([nH]c4ccccc34)[C@@](C(=O)OC)(c3cc4c(cc3OC)N(C)C3C45CCN4CC=C[C@](CC)(C45)[C@@H](O)[C@]3(O)C(=O)NC[C@H](C)O)C2)C1` (stereo partly drawn) [Example 22, (S)-2HPV], the IC50 came to 0.41 nM in experiment [1] (Homo sapiens, BT-474, 72 h) and 1.83 nM in experiment [2] (setting [5]).
